Measured values: patent publication US12281122B1, “PI3K inhibitors” (Cogent Biosciences, Inc., priority 2023, dated 2025)

Key:
[1] = tested on: T47D (PI3Kα-H1047R) cell line; test: HTRF phospho-AKT(S473) cell assay in T47D cells; format: cell-based, human
Method in brief: (§1)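 HTRF read-out of phospho-AKT(S473) in lysates gave IC50 values after 2 h compound exposure at 37° C. Dose series was 12 points at 1:3, topping at 5 μM for T47D and 10 μM for SKBR3. Only SKBR3 received 70 ng/ml PDGF-BB during the last 15 minutes.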

[2] = tested on: SKBR3 (PI3Kα-Wild Type) cell line; test: HTRF phospho-AKT(S473) cell assay in SKBR3 cells; format: cell-based, human
Method in brief: as §1

[3] = Homo sapiens; T47D (PI3Kα-H1047R) cells, HTRF phospho-AKT(S473), 2 hours compound incubation
[4] = Homo sapiens, SK-BR-3; SKBR3 (PI3Kα-Wild Type) cells, HTRF phospho-AKT(S473), 2 hours compound incubation, PDGF-BB stimulated
[5] = Homo sapiens; HTRF phospho-AKT(S473), T47D (PI3Kα-H1047R) cells, 2 hours compound incubation
[6] = Homo sapiens, SK-BR-3; HTRF phospho-AKT(S473), SKBR3 (PI3Kα-Wild Type) cells, 2 hours compound incubation, PDGF-BB stimulated

Row | Compound | IC50 [1, 3] | IC50 [2, 4] | IC50 [1, 5] | IC50 [2, 6]
1 | Cc1cc([C@@H](C)Nc2ccc(Cl)nc2C(=O)NS(C)(=O)=O)c2nc(N3CCC[C@@H](Oc4ccc(C)nc4)C3)n(C)c(=O)c2c1 [Compound 368, 6-chloro-3-(((R)-1-(3,6-dimethyl-2-((R)-3-((6-methylpyridin-3-yl)oxy)piperidin-1-yl)-4-oxo-3,4-dihydroquinazolin-8-yl)ethyl)amino)-N-(methylsulfonyl) picolinamide] | 250 to 500 nM | ≥ 5000 nM | – | –
2 | [2H]C([2H])([2H])n1ccc(C2CCN(c3nc4c([C@@H](C)Nc5ccc(Cl)nc5C(=O)NS(C)(=O)=O)cc(C)cc4c(=O)n3C)CC2)n1 [Compound 746, (R)-6-chloro-3-((1-(3,6-dimethyl-2-(4-(1-(methyl-d3)-1H-pyrazol-3-yl)piperidin-1-yl)-4-oxo-3,4-dihydroquinazolin-8-yl)ethyl)amino)-N-(methylsulfonyl) picolinamide] | – | – | < 250 nM | ≥ 5000 nM
3 | Cc1cc([C@@H](C)Nc2ccc(Cl)nc2C(=O)NS(C)(=O)=O)c2nc(-c3cccc(Cl)c3Cl)n(C)c(=O)c2c1 [Compound 777, (R)-6-chloro-3-((1-(2-(2,3-dichlorophenyl)-3,6-dimethyl-4-oxo-3,4-dihydroquinazolin-8-yl)ethyl)amino)-N-(methylsulfonyl) picolinamide] | – | – | 500 to 1000 nM | ≥ 5000 nM
4 | Cc1cc([C@@H](C)Nc2ccc(Cl)nc2C(=O)NS(C)(=O)=O)c2nc(N3CCC(c4cc(C)[nH]n4)CC3)n(C)c(=O)c2c1 [Compound 715, (R)-6-chloro-3-((1-(3,6-dimethyl-2-(4-(5-methyl-1H-pyrazol-3-yl)piperidin-1-yl)-4-oxo-3,4-dihydroquinazolin-8-yl)ethyl)amino)-N-(methylsulfonyl) picolinamide] | – | – | < 250 nM | 1000 to 5000 nM
5 | Cc1cc([C@@H](C)Nc2ccc(Cl)nc2C(=O)NS(C)(=O)=O)c2nc(N3Cc4cn(C5COC5)nc4C3)n(C)c(=O)c2c1 [Compound 290, (R)-6-chloro-3-((1-(3,6-dimethyl-2-(2-(oxetan-3-yl)-2,6-dihydropyrrolo[3,4-c]pyrazol-5(4H)-yl)-4-oxo-3,4-dihydroquinazolin-8-yl)ethyl)amino)-N-(methylsulfonyl) picolinamide] | < 250 nM | 1000 to 5000 nM | – | –
6 | CO[C@H]1C[C@H](S(=O)(=O)NC(=O)c2nc(Cl)ccc2N[C@H](C)c2cc(C)cc3c(=O)n(C)c(N4Cc5ccc(F)cc5C4)nc23)C1 [Compound 379, 6-chloro-3-(((R)-1-(2-(5-fluoroisoindolin-2-yl)-3,6-dimethyl-4-oxo-3,4-dihydroquinazolin-8-yl)ethyl)amino)-N-(((1r,3R)-3-methoxycyclobutyl)sulfonyl)picolinamide] | 250 to 500 nM | ≥ 5000 nM | – | –
7 | Cc1cc([C@@H](C)Nc2ccc(Cl)nc2C(=O)NS(C)(=O)=O)c2nc(N3CCC[C@H](c4ccncc4)C3)n(C)c(=O)c2c1 (relative stereo) [Compound 205, 6-chloro-3-(((R)-1-(3,6-dimethyl-4-oxo-2-((R*)-3-(pyridin-4-yl)piperidin-1-yl)-3,4-dihydroquinazolin-8-yl)ethyl)amino)-N-(methylsulfonyl) picolinamide] | < 250 nM | 1000 to 5000 nM | – | –
8 | Cc1cc([C@@H](C)Nc2ccc(Cl)nc2C(=O)NS(C)(=O)=O)c2nc(N3CCC(c4cnc(C)c(F)c4)CC3)n(C)c(=O)c2c1 [Compound 422, (R)-6-chloro-3-((1-(2-(4-(5-fluoro-6-methylpyridin-3-yl)piperidin-1-yl)-3,6-dimethyl-4-oxo-3,4-dihydroquinazolin-8-yl)ethyl)amino)-N-(methylsulfonyl) picolinamide] | < 250 nM | 1000 to 5000 nM | – | –
9 | COc1cnc(C2CCN(c3nc4c([C@@H](C)Nc5ccc(Cl)nc5C(=O)NS(C)(=O)=O)cc(C)cc4c(=O)n3C)CC2)cn1 [Compound 408, (R)-6-chloro-3-((1-(2-(4-(5-methoxypyrazin-2-yl)piperidin-1-yl)-3,6-dimethyl-4-oxo-3,4-dihydroquinazolin-8-yl)ethyl)amino)-N-(methylsulfonyl) picolinamide] | < 250 nM | ≥ 5000 nM | – | –
10 | Cc1cc([C@@H](C)Nc2ccc(Cl)nc2C(=O)NS(C)(=O)=O)c2nc(N3CCC[C@@H](c4nccc(C)n4)C3)n(C)c(=O)c2c1 (relative stereo) [Compound 647, 6-chloro-3-(((R)-1-(3,6-dimethyl-2-((R*)-3-(4-methylpyrimidin-2-yl)piperidin-1-yl)-4-oxo-3,4-dihydroquinazolin-8-yl)ethyl)amino)-N-(methylsulfonyl) picolinamide] | – | – | 250 to 500 nM | ≥ 5000 nM
11 | Cc1cc([C@@H](C)Nc2ccc(Cl)nc2C(=O)NS(C)(=O)=O)c2nc(N3C[C@@H]4C[C@H]3CN4c3ccc(F)cn3)n(C)c(=O)c2c1 [Compound 623, 6-chloro-3-(((R)-1-(2-((1S,4S)-5-(5-fluoropyridin-2-yl)-2,5-diazabicyclo [2.2.1]heptan-2-yl)-3,6-dimethyl-4-oxo-3,4-dihydroquinazolin-8-yl)ethyl)amino)-N-(methylsulfonyl) picolinamide] | – | – | 250 to 500 nM | ≥ 5000 nM

More lines, now with the values ahead:

Row | IC50 [1, 3] | IC50 [2, 4] | IC50 [1, 5] | IC50 [2, 6] | Compound
12 | – | – | 250 to 500 nM | ≥ 5000 nM | Cc1cc([C@@H](C)Nc2ccc(Cl)nc2C(=O)NS(C)(=O)=O)c2nc([C@H]3[C@@H]4CN(c5cnc(C)cn5)C[C@@H]43)n(C)c(=O)c2c1 [Compound 811, 6-chloro-3-(((R)-1-(3,6-dimethyl-2-((1R,5S,6r)-3-(5-methylpyrazin-2-yl)-3-azabicyclo[3.1.0]hexan-6-yl)-4-oxo-3,4-dihydroquinazolin-8-yl)ethyl)amino)-N-(methylsulfonyl) picolinamide]
13 | – | – | < 250 nM | 1000 to 5000 nM | Cc1cc([C@@H](C)Nc2ccc(Cl)nc2C(=O)NS(C)(=O)=O)c2nc(N3C[C@@H]4[C@H](C3)[C@H]4c3cnc(C)o3)n(C)c(=O)c2c1 [Compound 518, 6-chloro-3-(((R)-1-(3,6-dimethyl-2-((1R,5S,6R)-6-(2-methyloxazol-5-yl)-3-azabicyclo[3.1.0]hexan-3-yl)-4-oxo-3,4-dihydroquinazolin-8-yl)ethyl)amino)-N-(methylsulfonyl) picolinamide]
14 | – | – | < 250 nM | 1000 to 5000 nM | CCn1c(N2C[C@@H]3[C@H](C2)[C@H]3c2cn(C)nn2)nc2c([C@@H](C)Nc3ccc(Cl)nc3C(=O)NS(C)(=O)=O)cc(C)cc2c1=O [Compound 622, 6-chloro-3-(((R)-1-(3-ethyl-6-methyl-2-((1R,5S,6R)-6-(1-methyl-1H-1,2,3-triazol-4-yl)-3-azabicyclo[3.1.0]hexan-3-yl)-4-oxo-3,4-dihydroquinazolin-8-yl)ethyl)amino)-N-(methylsulfonyl) picolinamide]
15 | – | – | 250 to 500 nM | ≥ 5000 nM | COc1cc([C@H]2[C@@H]3CN(c4nc5c([C@@H](C)Nc6ccc(Cl)nc6C(=O)NS(C)(=O)=O)cc(C)cc5c(=O)n4C)C[C@@H]32)ccn1 [Compound 474, 6-chloro-3-(((R)-1-(2-((1R,5S,6S)-6-(2-methoxypyridin-4-yl)-3-azabicyclo[3.1.0]hexan-3-yl)-3,6-dimethyl-4-oxo-3,4-dihydroquinazolin-8-yl)ethyl)amino)-N-(methylsulfonyl) picolinamide]
16 | – | – | < 250 nM | 1000 to 5000 nM | [2H]C([2H])([2H])n1ccc([C@H]2[C@@H]3CN(c4nc5c([C@@H](C)Nc6ccc(Cl)nc6C(=O)NS(C)(=O)=O)cc(C)cc5c(=O)n4CC)C[C@@H]32)n1 [Compound 731, 6-chloro-3-(((R)-1-(3-ethyl-6-methyl-2-((1R,5S,6R)-6-(1-(methyl-d3)-1H-pyrazol-3-yl)-3-azabicyclo[3.1.0]hexan-3-yl)-4-oxo-3,4-dihydroquinazolin-8-yl)ethyl)amino)-N-(methylsulfonyl) picolinamide]
17 | 250 to 500 nM | 1000 to 5000 nM | – | – | Cc1cc([C@@H](C)Nc2ccc(Cl)nc2C(=O)NS(C)(=O)=O)c2nc(N3C[C@@H]4[C@H](C3)[C@H]4c3nn(C)cc3F)n(C)c(=O)c2c1 [Compound 391, 6-chloro-3-(((R)-1-(2-((1R,5S,6R)-6-(4-fluoro-1-methyl-1H-pyrazol-3-yl)-3-azabicyclo[3.1.0]hexan-3-yl)-3,6-dimethyl-4-oxo-3,4-dihydroquinazolin-8-yl)ethyl)amino)-N-(methylsulfonyl) picolinamide]
18 | – | – | 250 to 500 nM | ≥ 5000 nM | Cc1cc([C@@H](C)Nc2ccc(Cl)nc2C(=O)NS(C)(=O)=O)c2nc(N3C[C@@H]4[C@H](C3)[C@H]4c3cc4ccccn4n3)n(C)c(=O)c2c1 [Compound 473]
19 | < 250 nM | 1000 to 5000 nM | – | – | Cc1cc([C@@H](C)Nc2ccc(Cl)nc2C(=O)NS(C)(=O)=O)c2nc(N3Cc4cc(F)cnc4C3)n(C)c(=O)c2c1 [Compound 225, (R)-6-chloro-3-((1-(2-(3-fluoro-5,7-dihydro-6H-pyrrolo[3,4-b]pyridin-6-yl)-3,6-dimethyl-4-oxo-3,4-dihydroquinazolin-8-yl)ethyl)amino)-N-(methylsulfonyl) picolinamide]
20 | – | – | < 250 nM | 1000 to 5000 nM | Cc1cc([C@@H](C)Nc2ccc(Cl)nc2C(=O)NS(C)(=O)=O)c2nc(N3CC[C@H](Oc4cnc(C)cn4)C3)n(C)c(=O)c2c1 [Compound 631, 6-chloro-3-(((R)-1-(3,6-dimethyl-2-((S)-3-((5-methylpyrazin-2-yl)oxy)pyrrolidin-1-yl)-4-oxo-3,4-dihydroquinazolin-8-yl)ethyl)amino)-N-(methylsulfonyl) picolinamide]
